Experimental data as given in ChEMBL document CHEMBL5724914, “Linking interpersonal differences in gut microbiota composition and drug biotransformation activity” (2024).
Note: call rule not given here.

Experiment: (§1) The drug is tested on WLS-170 corresponding to human gut metagenome with ENA study accession number: PRJEB37062 and ENA sample accession number: ERS12561762 for biotransformation under anaerobic condition. The drug concentrations were measured over 9 timepoints collected between 0 and 24 hours of incubation by liquid-chromatography-coupled mass spectrometry (LC–MS)
Conditions: 2 µM
In the case of `O=C(O)CCC(=O)O.O=C(O[C@H]1CN2CCC1CC2)N1CCc2ccccc2[C@@H]1c1ccccc1` [SOLIFENACIN SUCCINATE], the “Bacterial Biotransformation” value was “Compound NOT metabolized”. For `O=C(CCCN1CCC2(CC1)C(=O)NCN2c1ccccc1)c1ccc(F)cc1` [SPIPERONE], the “Bacterial Biotransformation” value was “Compound metabolized”.

Conditions: human gut metagenome, 24 h, 2 µM
In the case of `O=C(O)CCC(=O)O.O=C(O[C@H]1CN2CCC1CC2)N1CCc2ccccc2[C@@H]1c1ccccc1` [SOLIFENACIN SUCCINATE], the “Bacterial Biotransformation” value was “Compound metabolized”. With `O=C(CCCN1CCC2(CC1)C(=O)NCN2c1ccccc1)c1ccc(F)cc1` [SPIPERONE] the “Bacterial Biotransformation” value was “Compound NOT metabolized”.

Experiment: as §1, with “WLS-086” for “WLS-170”, “ERS12561752” for “ERS12561762”
Conditions: 2 µM
With `O=C(O)CCC(=O)O.O=C(O[C@H]1CN2CCC1CC2)N1CCc2ccccc2[C@@H]1c1ccccc1` [SOLIFENACIN SUCCINATE] the “Bacterial Biotransformation” value was “Compound metabolized”. In the case of `O=C(CCCN1CCC2(CC1)C(=O)NCN2c1ccccc1)c1ccc(F)cc1` [SPIPERONE], the “Bacterial Biotransformation” value was “Compound metabolized”.

Conditions: human gut metagenome, 24 h, 2 µM
Remark: another data set of the same source
In the case of `O=C(O)CCC(=O)O.O=C(O[C@H]1CN2CCC1CC2)N1CCc2ccccc2[C@@H]1c1ccccc1` [SOLIFENACIN SUCCINATE], the “Bacterial Biotransformation” value was “Compound NOT metabolized”. For `O=C(CCCN1CCC2(CC1)C(=O)NCN2c1ccccc1)c1ccc(F)cc1` [SPIPERONE], the “Bacterial Biotransformation” value was “Compound NOT metabolized”.

Conditions: human gut metagenome, 24 h, 2 µM
Remark: another data set of the same source
For `O=C(O)CCC(=O)O.O=C(O[C@H]1CN2CCC1CC2)N1CCc2ccccc2[C@@H]1c1ccccc1` [SOLIFENACIN SUCCINATE], the “Bacterial Biotransformation” value was “Compound NOT metabolized”. For `O=C(CCCN1CCC2(CC1)C(=O)NCN2c1ccccc1)c1ccc(F)cc1` [SPIPERONE], the “Bacterial Biotransformation” value was “Compound NOT metabolized”.

Experiment: as §1, with “Z-014” for “WLS-170”, “rat” for “human”, “ERS12561814” for “ERS12561762”
Conditions: 2 µM
For `O=C(O)CCC(=O)O.O=C(O[C@H]1CN2CCC1CC2)N1CCc2ccccc2[C@@H]1c1ccccc1` [SOLIFENACIN SUCCINATE], the “Bacterial Biotransformation” value was “Compound NOT metabolized”. In the case of `O=C(CCCN1CCC2(CC1)C(=O)NCN2c1ccccc1)c1ccc(F)cc1` [SPIPERONE], the “Bacterial Biotransformation” value was “Compound NOT metabolized”.

Experiment: as §1, with “WLS-090” for “WLS-170”, “ERS12561753” for “ERS12561762”
Conditions: 2 µM
With `O=C(O)CCC(=O)O.O=C(O[C@H]1CN2CCC1CC2)N1CCc2ccccc2[C@@H]1c1ccccc1` [SOLIFENACIN SUCCINATE] the “Bacterial Biotransformation” value was “Compound metabolized”. With `O=C(CCCN1CCC2(CC1)C(=O)NCN2c1ccccc1)c1ccc(F)cc1` [SPIPERONE] the “Bacterial Biotransformation” value was “Compound NOT metabolized”.

Experiment: as §1, with “Z-021” for “WLS-170”, “to” for “to human gut”, “ERS12561820” for “ERS12561762”
Conditions: 2 µM
For `O=C(O)CCC(=O)O.O=C(O[C@H]1CN2CCC1CC2)N1CCc2ccccc2[C@@H]1c1ccccc1` [SOLIFENACIN SUCCINATE], the “Bacterial Biotransformation” value was “Compound metabolized”. For `O=C(CCCN1CCC2(CC1)C(=O)NCN2c1ccccc1)c1ccc(F)cc1` [SPIPERONE], the “Bacterial Biotransformation” value was “Compound NOT metabolized”.

Experiment: as §1, with “WLS-039” for “WLS-170”, “ERS12561746” for “ERS12561762”
Conditions: 2 µM
With `O=C(O)CCC(=O)O.O=C(O[C@H]1CN2CCC1CC2)N1CCc2ccccc2[C@@H]1c1ccccc1` [SOLIFENACIN SUCCINATE] the “Bacterial Biotransformation” value was “Compound metabolized”. For `O=C(CCCN1CCC2(CC1)C(=O)NCN2c1ccccc1)c1ccc(F)cc1` [SPIPERONE], the “Bacterial Biotransformation” value was “Compound NOT metabolized”.

Experiment: as §1, with “Z-010” for “WLS-170”, “to” for “to human gut”, “ERS12561810” for “ERS12561762”
Conditions: 2 µM
For `O=C(O)CCC(=O)O.O=C(O[C@H]1CN2CCC1CC2)N1CCc2ccccc2[C@@H]1c1ccccc1` [SOLIFENACIN SUCCINATE], the “Bacterial Biotransformation” value was “Compound metabolized”. For `O=C(CCCN1CCC2(CC1)C(=O)NCN2c1ccccc1)c1ccc(F)cc1` [SPIPERONE], the “Bacterial Biotransformation” value was “Compound metabolized”.

Experiment: as §1, with “Z-019” for “WLS-170”, “rat” for “human”, “ERS12561818” for “ERS12561762”
Conditions: 2 µM
For `O=C(O)CCC(=O)O.O=C(O[C@H]1CN2CCC1CC2)N1CCc2ccccc2[C@@H]1c1ccccc1` [SOLIFENACIN SUCCINATE], the “Bacterial Biotransformation” value was “Compound NOT metabolized”. With `O=C(CCCN1CCC2(CC1)C(=O)NCN2c1ccccc1)c1ccc(F)cc1` [SPIPERONE] the “Bacterial Biotransformation” value was “Compound NOT metabolized”.

Experiment: as §1, with “Z-005” for “WLS-170”, “to” for “to human gut”, “ERS12561805” for “ERS12561762”
Conditions: 2 µM
For `O=C(O)CCC(=O)O.O=C(O[C@H]1CN2CCC1CC2)N1CCc2ccccc2[C@@H]1c1ccccc1` [SOLIFENACIN SUCCINATE], the “Bacterial Biotransformation” value was “Compound metabolized”. With `O=C(CCCN1CCC2(CC1)C(=O)NCN2c1ccccc1)c1ccc(F)cc1` [SPIPERONE] the “Bacterial Biotransformation” value was “Compound NOT metabolized”.

Conditions: human gut metagenome, 24 h, 2 µM
Remark: another data set of the same source
For `O=C(O)CCC(=O)O.O=C(O[C@H]1CN2CCC1CC2)N1CCc2ccccc2[C@@H]1c1ccccc1` [SOLIFENACIN SUCCINATE], the “Bacterial Biotransformation” value was “Compound metabolized”. For `O=C(CCCN1CCC2(CC1)C(=O)NCN2c1ccccc1)c1ccc(F)cc1` [SPIPERONE], the “Bacterial Biotransformation” value was “Compound NOT metabolized”.

Experiment: as §1, with “Z-001” for “WLS-170”, “mouse” for “human”, “ERS12561801” for “ERS12561762”
Conditions: 2 µM
In the case of `O=C(O)CCC(=O)O.O=C(O[C@H]1CN2CCC1CC2)N1CCc2ccccc2[C@@H]1c1ccccc1` [SOLIFENACIN SUCCINATE], the “Bacterial Biotransformation” value was “Compound NOT metabolized”. In the case of `O=C(CCCN1CCC2(CC1)C(=O)NCN2c1ccccc1)c1ccc(F)cc1` [SPIPERONE], the “Bacterial Biotransformation” value was “Compound NOT metabolized”.

Experiment: as §1, with “Z-018” for “WLS-170”, “pig” for “human”, “ERS12561817” for “ERS12561762”
Conditions: 2 µM
For `O=C(O)CCC(=O)O.O=C(O[C@H]1CN2CCC1CC2)N1CCc2ccccc2[C@@H]1c1ccccc1` [SOLIFENACIN SUCCINATE], the “Bacterial Biotransformation” value was “Compound metabolized”. With `O=C(CCCN1CCC2(CC1)C(=O)NCN2c1ccccc1)c1ccc(F)cc1` [SPIPERONE] the “Bacterial Biotransformation” value was “Compound NOT metabolized”.

Experiment: as §1, with “Z-017” for “WLS-170”, “mouse” for “human”, “ERS12561816” for “ERS12561762”
Conditions: 2 µM
In the case of `O=C(O)CCC(=O)O.O=C(O[C@H]1CN2CCC1CC2)N1CCc2ccccc2[C@@H]1c1ccccc1` [SOLIFENACIN SUCCINATE], the “Bacterial Biotransformation” value was “Compound NOT metabolized”. With `O=C(CCCN1CCC2(CC1)C(=O)NCN2c1ccccc1)c1ccc(F)cc1` [SPIPERONE] the “Bacterial Biotransformation” value was “Compound NOT metabolized”.

Experiment: as §1, with “WLS-082” for “WLS-170”, “ERS12561751” for “ERS12561762”
Conditions: 2 µM
With `O=C(O)CCC(=O)O.O=C(O[C@H]1CN2CCC1CC2)N1CCc2ccccc2[C@@H]1c1ccccc1` [SOLIFENACIN SUCCINATE] the “Bacterial Biotransformation” value was “Compound metabolized”. For `O=C(CCCN1CCC2(CC1)C(=O)NCN2c1ccccc1)c1ccc(F)cc1` [SPIPERONE], the “Bacterial Biotransformation” value was “Compound NOT metabolized”.

Conditions: human gut metagenome, 24 h, 2 µM
Remark: another data set of the same source
In the case of `O=C(O)CCC(=O)O.O=C(O[C@H]1CN2CCC1CC2)N1CCc2ccccc2[C@@H]1c1ccccc1` [SOLIFENACIN SUCCINATE], the “Bacterial Biotransformation” value was “Compound metabolized”. In the case of `O=C(CCCN1CCC2(CC1)C(=O)NCN2c1ccccc1)c1ccc(F)cc1` [SPIPERONE], the “Bacterial Biotransformation” value was “Compound metabolized”.

Conditions: human gut metagenome, 24 h, 2 µM
Remark: another data set of the same source
With `O=C(O)CCC(=O)O.O=C(O[C@H]1CN2CCC1CC2)N1CCc2ccccc2[C@@H]1c1ccccc1` [SOLIFENACIN SUCCINATE] the “Bacterial Biotransformation” value was “Compound NOT metabolized”. In the case of `O=C(CCCN1CCC2(CC1)C(=O)NCN2c1ccccc1)c1ccc(F)cc1` [SPIPERONE], the “Bacterial Biotransformation” value was “Compound NOT metabolized”.

Experiment: as §1, with “WLS-027” for “WLS-170”, “ERS12561744” for “ERS12561762”
Conditions: 2 µM
For `O=C(O)CCC(=O)O.O=C(O[C@H]1CN2CCC1CC2)N1CCc2ccccc2[C@@H]1c1ccccc1` [SOLIFENACIN SUCCINATE], the “Bacterial Biotransformation” value was “Compound metabolized”. With `O=C(CCCN1CCC2(CC1)C(=O)NCN2c1ccccc1)c1ccc(F)cc1` [SPIPERONE] the “Bacterial Biotransformation” value was “Compound NOT metabolized”.
